pIC50: −log10 of the molar value.
Biological target: Beta-secretase 1 (Homo sapiens, UniProt P56817)
Assay: Inhibition of human Beta-secretase 1

Chain of Beta-secretase 1 (P56817 whole entry): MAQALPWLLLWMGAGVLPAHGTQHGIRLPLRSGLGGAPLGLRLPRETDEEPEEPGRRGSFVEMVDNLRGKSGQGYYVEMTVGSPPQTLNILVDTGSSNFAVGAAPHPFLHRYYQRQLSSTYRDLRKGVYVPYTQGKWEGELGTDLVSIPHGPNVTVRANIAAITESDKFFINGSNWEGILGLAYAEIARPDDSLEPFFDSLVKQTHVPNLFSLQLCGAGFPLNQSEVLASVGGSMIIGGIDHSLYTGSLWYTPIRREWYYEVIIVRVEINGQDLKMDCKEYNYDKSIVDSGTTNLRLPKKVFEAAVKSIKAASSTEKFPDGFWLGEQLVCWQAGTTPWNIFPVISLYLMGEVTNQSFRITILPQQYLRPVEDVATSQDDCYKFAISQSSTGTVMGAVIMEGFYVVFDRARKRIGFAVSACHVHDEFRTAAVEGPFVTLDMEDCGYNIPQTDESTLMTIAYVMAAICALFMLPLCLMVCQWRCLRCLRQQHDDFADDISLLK

Row | SMILES | pIC50
1 | CC(C)[C@H](NC(=O)C[C@H](O)[C@H](CC1CCCCC1)NC(=O)C[C@H](O)[C@H](Cc1ccccc1)NC(=O)OC(C)(C)C)C(=O)NCc1ccc(C(=O)O)cc1 | < 4.00
2 | CCC(C)C[C@H](NC(=O)[C@H](CC(C)C)NC(C)=O)[C@@H](O)CC(=O)N[C@@H](Cc1ccccc1)[C@@H](O)CC(=O)N[C@H](C(=O)NCc1ccc(C(=O)O)cc1)C(C)C (some centres not stated) | 7.68
3 | CCC(C)C[C@H](NC(=O)[C@H](CC(C)C)NC(C)=O)[C@@H](O)CC(=O)NC(CC[S+](C)[O-])[C@@H](O)CC(=O)N[C@H](C(=O)NCc1ccc(C(=O)O)cc1)C(C)C (some centres not stated) | 4.47
4 | CC(=O)N[C@@H](CC(C)C)C(=O)N[C@@H](Cc1ccccc1)[C@@H](O)CC(=O)N[C@@H](CC1CCCCC1)[C@@H](O)CC(=O)N[C@H](C(=O)NCc1ccc(C(=O)O)cc1)C(C)C (stereo in doubt; 15) | 6.17
5 | CCC(C)C[C@H](NC(=O)C[C@H](O)[C@H](Cc1ccccc1)NC(=O)[C@H](CC(C)C)NC(C)=O)[C@@H](O)CC(=O)N[C@H](C(=O)NCc1ccc(C(=O)O)cc1)C(C)C (some centres not stated) | 6.19
6 | CC(C)[C@H](NC(=O)C[C@H](O)[C@H](CC1CCCCC1)NC(=O)C[C@H](O)[C@H](Cc1ccccc1)NC(=O)[C@@H]1CCCN1)C(=O)NCc1ccc(C(=O)O)cc1 | 5.89
7 | CC(=O)N[C@@H](CCC(=O)O)C(=O)N[C@@H](Cc1ccccc1)[C@@H](O)CC(=O)N[C@@H](CC1CCCCC1)[C@@H](O)CC(=O)N[C@H](C(=O)NCc1ccc(C(=O)O)cc1)C(C)C | 4.38
8 | CC(=O)NCC(=O)N[C@@H](Cc1ccccc1)[C@@H](O)CC(=O)N[C@@H](CC1CCCCC1)[C@@H](O)CC(=O)N[C@H](C(=O)NCc1ccc(C(=O)O)cc1)C(C)C | 5.05
9 | CCC(C)C[C@H](NC(=O)[C@H](CC(C)C)NC(C)=O)[C@@H](O)CC(=O)NC(CCSC)[C@@H](O)CC(=O)N[C@H](C(=O)NCc1ccc(C(=O)O)cc1)C(C)C (some centres not stated) | 6.34
10 | CC(=O)N[C@@H](Cc1ccccc1)C(=O)N[C@@H](Cc1ccccc1)[C@@H](O)CC(=O)N[C@@H](CC1CCCCC1)[C@@H](O)CC(=O)N[C@H](C(=O)NCc1ccc(C(=O)O)cc1)C(C)C | 5.25
11 | CC(=O)N[C@@H](CC(C)C)C(=O)N[C@@H](Cc1ccccc1)[C@@H](O)CC(=O)N[C@@H](CC1CCCCC1)[C@@H](O)CC(=O)N[C@H](C(=O)NCc1ccc(C(=O)O)cc1)C(C)C (stereo in doubt; 13) | 7.30
12 | CC(C)[C@H](NC(=O)C[C@H](O)[C@H](CC1CCCCC1)NC(=O)C[C@H](O)[C@@H](N)Cc1ccccc1)C(=O)NCc1ccc(C(=O)O)cc1 | < 4.00
